Test in all cases: combination Emax (second highest fraction inhibited in the dose matrix, 72 h); higher = more inhibition; extreme values may be limits of the assay
One assay relates to NCI-H2818 (Mesothelioma). Put shortly: (§1)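 Cell lines in DMEM/F12 or RPMI with 10% FBS were plated in 1536-well plates, held 24 hours at 37°C, 5% CO2, then given two-drug dose matrices for 72 hours (DMSO typically 0.2%). Viability was read by CellTiter-Glo 2.0 luminescence and scaled as inhibition from 0 (vehicle wells) to 1 (blank wells). Combination Emax is the second-highest inhibition in the matrix; Bliss excess is observed combination effect minus expected EA + EB − EA·EB, EA and EB being single-agent effects.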

Another assay has as its system WM-115 (Melanoma). Put shortly:
as §1

Assay [1] relates to COLO-678 (Colorectal Carcinoma). Put shortly: as §1
A further assay deals with MEL-JUSO (Melanoma). Put shortly: as §1
Assay [2] deals with EVSA-T (Breast Carcinoma). Put shortly: as §1
In assay [3] the test system is PANC-08-13 (Pancreatic Carcinoma). Put shortly:
as §1

In the next assay the test system is LN-18 (Glioblastoma). Put shortly:
as §1

Assay [4] concerns SW837 (Colorectal Carcinoma). Put shortly: as §1
The subject of assay [5] is KCL-22 (Chronic Myelogenous Leukemia). Put shortly: as §1
In assay [6] the test system is DND-41 (T-Lymphoblastic Leukemia). Put shortly:
as §1

In assay [7] the test system is NCI-H1792 (Lung Adenocarcinoma). Put shortly:
as §1

Assay [8] concerns MS751 (Cervical Carcinoma). Put shortly:
as §1

For a further assay, the system named is TC-71 (Ewing's Sarcoma). Put shortly: as §1
In assay [9] the test system is MKN28 (Gastric Carcinoma). Put shortly:
as §1

The test system of assay [10] is CAMA-1 (Breast Carcinoma). Put shortly: as §1
For assay [11], the system named is BFTC-905 (Bladder Carcinoma). Put shortly:
as §1

The test system of the next assay is U251 (Low Grade Glioma). Put shortly:
as §1

In assay [12] the test system is KYSE-180 (Esophageal Squamous Cell Carcinoma). Put shortly: as §1
Assay [13] has as its system BL-41 (Burkitt's Lymphoma). Put shortly: as §1

The source of these data is the supplement of paper PMC11061612.

As to `C[C@@H](c1ccc2nccn2c1)n1nnc2ncc(-c3cnn(C)c3)nc21` [Savolitinib] + CC1(C)CCC(CN2CCN(c3ccc(C(=O)NS(=O)(=O)c4ccc(NCC5CCOCC5)c([N+](=O)[O-])c4)c(Oc4cnc5[nH]ccc5c4)c3)CC2)=C(c2ccc(Cl)cc2)C1 [Venetoclax] (first compound max 1 µM, 7x7, partner max 1 µM), the “combination Emax” value in the assay with NCI-H2818 (Mesothelioma) amounted to 0.127; in the assay on WM-115 (Melanoma) it was 0.199; in [1], 0.146; in the assay on MEL-JUSO (Melanoma), 0.126; in assay [2] it was 0.201; in assay [3], 0.109. Moreover, the “combination Emax” value amounted to 0.146 with LN-18 (Glioblastoma); 0.14 in [4]; 0.137 in assay [5]; 0.233 in [6]; 0.108 in assay [7]; 0.176 in [8]. The “combination Emax” value in the assay with TC-71 (Ewing's Sarcoma) is 0.119; in [9], 0.0564; in [10], 0.17; in [11] it was 0.164; in the assay with U251 (Low Grade Glioma) it was 0.116; in assay [12], 0.134. In assay [13], the “combination Emax” value turned out to be 0.106.
`NC1(C(=O)N[C@@H](CCO)c2ccc(Cl)cc2)CCN(c2ncnc3[nH]ccc23)CC1` [Capivasertib] + CC(C)n1c(=O)n(C)c2cnc3cc(F)c(-c4ccc(OCCCN5CCCCC5)nc4)cc3c21 [AZD1390] (first compound max 10 µM, 7x7, partner max 0.3 µM): the “combination Emax” value with NCI-H2818 (Mesothelioma) came to 0.224; with WM-115 (Melanoma), 0.565; in assay [1], 0.146; in the assay with MEL-JUSO (Melanoma), 0.164; in assay [2], 0.975; in [3] it was 0.242. The “combination Emax” value turned out to be 0.432 in the assay with LN-18 (Glioblastoma); 0.25 in assay [4]; 0.266 in [5]; 0.165 in assay [6]; 0.179 in assay [7]; 0.19 in assay [8]. The “combination Emax” value with TC-71 (Ewing's Sarcoma) was 0.263; in assay [9], 0.145; in [10], 0.665; in assay [11] it was 0.221; in the assay with U251 (Low Grade Glioma), 0.284; in assay [12] it was 0.488. Besides, the “combination Emax” value in [13] was found to be 0.297.
With `CC(=O)c1c(C)c2cnc(Nc3ccc(N4CCNCC4)cn3)nc2n(C2CCCC2)c1=O` [Palbociclib] + Cn1cnc2c(F)c(Nc3ccc(Br)cc3Cl)c(C(=O)NOCCO)cc21 [Selumetinib] (first compound max 10 µM, 7x7, partner max 10 µM), the “combination Emax” value in the assay on NCI-H2818 (Mesothelioma) turned out to be 0.208; in the assay with WM-115 (Melanoma) it was 0.415; in assay [1], 0.525; with MEL-JUSO (Melanoma), 0.425; in assay [2] it was 0.287; in assay [3], 0.221. In addition, the “combination Emax” value stood at 0.359 with LN-18 (Glioblastoma); 0.532 in assay [4]; 0.569 in [5]; 0.489 in [6]; 0.651 in assay [7]; 0.236 in assay [8]. Besides, the “combination Emax” value in the assay on TC-71 (Ewing's Sarcoma) was determined as 0.396; in assay [9], 0.3; in [10] it was 0.102; in [11], 0.746; with U251 (Low Grade Glioma) it was 0.297; in assay [12] it was 0.203. Besides, the “combination Emax” value in assay [13] was 0.433.
For `COc1nnc2ccc(N3CCC(c4ccc(OCCN5CCN(C)C(=O)[C@H]5C)cc4)CC3)nn12` [AZD5153] + Cn1cnc2c(F)c(Nc3ccc(Br)cc3Cl)c(C(=O)NOCCO)cc21 [Selumetinib] (first compound max 1 µM, 7x7, partner max 10 µM), the “combination Emax” value in the assay with NCI-H2818 (Mesothelioma) stood at 0.27; with WM-115 (Melanoma) it was 0.832; in assay [1] it was 0.615; with MEL-JUSO (Melanoma), 0.59; in assay [2] it was 0.942; in [3], 0.805. Also, the “combination Emax” value was found to be 0.721 in the assay with LN-18 (Glioblastoma); 0.753 in [4]; 0.957 in assay [5]; 0.893 in [6]; 0.78 in assay [7]; 0.849 in assay [8]. In addition, the “combination Emax” value with TC-71 (Ewing's Sarcoma) came out at 0.762; in assay [9] it was 0.416; in [10], 0.506; in assay [11], 0.873; with U251 (Low Grade Glioma), 0.592; in [12] it was 0.401. For the same molecule, in [13], the “combination Emax” value was 0.863.
Take `CC(=O)c1c(C)c2cnc(Nc3ccc(N4CCNCC4)cn3)nc2n(C2CCCC2)c1=O` [Palbociclib] + CC1(C)CCC(CN2CCN(c3ccc(C(=O)NS(=O)(=O)c4ccc(NCC5CCOCC5)c([N+](=O)[O-])c4)c(Oc4cnc5[nH]ccc5c4)c3)CC2)=C(c2ccc(Cl)cc2)C1 [Venetoclax] (first compound max 10 µM, 7x7, partner max 1 µM): the “combination Emax” value was found to be 0.203 in the assay on NCI-H2818 (Mesothelioma); 0.0976 in the assay on WM-115 (Melanoma); 0.222 in assay [1]; 0.143 with MEL-JUSO (Melanoma); 0.209 in assay [2]; 0.157 in assay [3]. Also, the “combination Emax” value was 0.383 with LN-18 (Glioblastoma); 0.0079 in assay [4]; 0.513 in assay [5]; 0.45 in assay [6]; 0.465 in [7]; 0.128 in assay [8]. Further, the “combination Emax” value in the assay on TC-71 (Ewing's Sarcoma) was 0.272; in assay [9], 0.0507; in assay [10] it was 0.142; in assay [11] it was 0.326; in the assay on U251 (Low Grade Glioma), 0.153; in assay [12] it was 0.188. For the same molecule, the “combination Emax” value in assay [13] was found to be 0.312.
In the case of `Cc1nc(Nc2ncc(C(=O)Nc3c(C)cccc3Cl)s2)cc(N2CCN(CCO)CC2)n1` [Dasatinib] + CC(=O)Nc1cccc(-n2c(=O)n(C3CC3)c(=O)c3c(Nc4ccc(I)cc4F)n(C)c(=O)c(C)c32)c1 [Trametinib] (first compound max 2 µM, 7x7, partner max 1 µM), the “combination Emax” value in the assay with NCI-H2818 (Mesothelioma) was 0.582; in the assay with WM-115 (Melanoma), 0.805; in assay [1], 0.559; with MEL-JUSO (Melanoma), 0.497; in assay [2] it was 0.176; in [3] it was 0.738. In addition, the “combination Emax” value came to 0.353 in the assay with LN-18 (Glioblastoma); 0.764 in [4]; 0.93 in assay [5]; 0.263 in [6]; 1 in assay [7]; 0.282 in assay [8]. Also, the “combination Emax” value stood at 0.146 in the assay on TC-71 (Ewing's Sarcoma); 0.417 in assay [9]; 0.127 in [10]; 0.863 in [11]; 0.781 with U251 (Low Grade Glioma); 0.411 in [12]. Also, in assay [13], the “combination Emax” value worked out at 0.144.
